Assay results as given in article PMC7316745, “A small-molecule ARTS mimetic promotes apoptosis through degradation of both XIAP and Bcl-2” (Cell Death & Disease, 2020).

Columns and labels:
XIAP = molecular target: T1, XIAP (Homo sapiens, UniProt P98170); assay: microscale thermophoresis (MST); type: binding
T1 construct: recombinant untagged XIAP, NT650-labelled (maleimide coupling)

786-0 = assay: cells; parameters: Sulforhodamine B growth/viability assay on tumour cell line panel (Oncolead), six dilutions, compound replenished daily; details: Homo sapiens, 786-0; 72 h, SRB; read-out: Supplementary table 1 / A4 IC50
Method: (§1) Screening of 94 different cancer cell lines spanning over 18 human tissues was performed by Oncolead Ltd. The company used an identical platform to the one NIH, NCI-60 uses to assess the effect of a compound on the viability of a variety of tumour cell lines. Briefly, cells are treated with a series of six dilutions of a compound for 72 h (compound is replenished daily). After 72 h, cells were fixed (living cells are attached to the plate), and then washed to remove dead and dying cells. Cells were then stained with a dye (sulforhodamine B) that dyes all proteins purple, which is measured by a plate reader and provides quantification of living cells. The number of cells treated with the compound is compared to the number of cells treated with DMSO (solvent). The inhibitory concentration (IC) value was calculated by taking the number of cells after 72 h of treatment and dividing by the number of cells after 72 h treatment with DMSO (C). IC50 is the value calculated from the dose–response plot, which is the concentration of the compound that has 50% decrease of the IC. To determine the specificity of A4 killing for various types of cancer, a panel of 94 cancer cell lines representing 18 different types of cancers were tested. The IC50 values for each cell line treated with A4 were determined (Oncolead Ltd). The cancers that were most sensitive to A4 killing were of haematological origin (8/12 different cell lines), melanoma (3/5 lines), pancreatic cancer and 4/7 lung cancers. Importantly, peripheral blood mononuclear cells (PBMCs), representing healthy normal cells, and 184A1, a normal human epithelium mammary gland cell, were not killed by A4 (Fig. 5a, Supplementary Table 1 and Fig. 5cI, respectively). To explore whether the levels of XIAP and Bcl-2 protein affect the sensitivity to A4, we analysed the available web proteomes and looked for a correlation. While data regarding XIAP expression levels were found in most proteomes (28 of 32 proteomes), Bcl-2 expression data were only detected in few (9 of 32 proteomes) (data not shown). A significant correlation was found between XIAP expression levels (ratio to actin, GAPDH) and the sensitivity to A4 (IC50, µM) in breast, ovary and kidney carcinomas (Fig. 5bI, II and Supplementary Tables 1 and 2). Cancer cell lines with high levels of XIAP were particularly sensitive to the killing effect of A4 (Fig. 5bI, II and Supplementary Tables 1 and 2). […] To further confirm that A4 functions as a specific antagonist for XIAP, we performed a SKOV-3 rescue assay. SKOV-3 ovarian carcinoma cells are highly sensitive to SMs[49]. SMs act by antagonizing cIAPs, an event that leads to cell death when complemented by an XIAP-dependent increase in TNFα production[47],[48],[58]. In SKOV-3 cells, XIAP is required for TNFα production, which recruits cIAP into a complex that activates caspase-8 and apoptosis through the extrinsic pathway (Fig. 6a)[49]. Knockdown of XIAP in SKOV-3 cells bestowed resistance to SMs[49]. We utilized this assay to investigate the specificity of A4 for XIAP compared to cIAPs. Treatment with 1 μM of the SM Birinapant for […]

ACHN = assay: cells; parameters: Sulforhodamine B growth/viability assay on tumour cell line panel (Oncolead), six dilutions, compound replenished daily; details: Homo sapiens, ACHN; 72 h, SRB; read-out: Supplementary table 1 / A4 IC50
Method: as §1

COLO205 = assay: cells; parameters: Sulforhodamine B growth/viability assay on tumour cell line panel (Oncolead), six dilutions, compound replenished daily; details: Homo sapiens, COLO 205; 72 h, SRB; read-out: Supplementary table 1 / A4 IC50
Method: as §1

COLO678 = assay: cells; parameters: Sulforhodamine B growth/viability assay on tumour cell line panel (Oncolead), six dilutions, compound replenished daily; details: Homo sapiens, COLO-678; 72 h, SRB; read-out: Supplementary table 1 / A4 IC50
Method: as §1

Caco-2 = assay: cells; parameters: Sulforhodamine B growth/viability assay on tumour cell line panel (Oncolead), six dilutions, compound replenished daily; details: Homo sapiens, Caco-2; 72 h, SRB; read-out: Supplementary table 1 / A4 IC50
Method: as §1

Caki1 = assay: cells; parameters: Sulforhodamine B growth/viability assay on tumour cell line panel (Oncolead), six dilutions, compound replenished daily; details: Homo sapiens, CAKI-1; 72 h, SRB; read-out: Supplementary table 1 / A4 IC50
Method: as §1

DLD1 = assay: cells; parameters: Sulforhodamine B growth/viability assay on tumour cell line panel (Oncolead), six dilutions, compound replenished daily; details: Homo sapiens, DLD-1; 72 h, SRB; read-out: Supplementary table 1 / A4 IC50
Method: as §1

HCT116 = assay: cells; parameters: Sulforhodamine B growth/viability assay on tumour cell line panel (Oncolead), six dilutions, compound replenished daily; details: Homo sapiens, HCT-116; 72 h, SRB; read-out: Supplementary table 1 / A4 IC50
Method: as §1

HCT15 = assay: cells; parameters: Sulforhodamine B growth/viability assay on tumour cell line panel (Oncolead), six dilutions, compound replenished daily; details: Homo sapiens, HCT-15; 72 h, SRB; read-out: Supplementary table 1 / A4 IC50
Method: as §1

HEK293 = assay: cells; parameters: Sulforhodamine B growth/viability assay on tumour cell line panel (Oncolead), six dilutions, compound replenished daily; details: Homo sapiens, HEK293; 72 h, SRB; read-out: Supplementary table 1 / A4 IC50
Method: as §1

HS578T = assay: cells; parameters: Sulforhodamine B growth/viability assay on tumour cell line panel (Oncolead), six dilutions, compound replenished daily; details: Homo sapiens, Hs-578T; 72 h, SRB; read-out: Supplementary table 1 / A4 IC50
Method: as §1

HT-29 = assay: cells; parameters: Sulforhodamine B growth/viability assay on tumour cell line panel (Oncolead), six dilutions, compound replenished daily; details: Homo sapiens, HT-29; 72 h, SRB; read-out: Supplementary table 1 / A4 IC50
Method: as §1

IGROV-1 = assay: cells; parameters: Sulforhodamine B growth/viability assay on tumour cell line panel (Oncolead), six dilutions, compound replenished daily; details: Homo sapiens, IGROV-1; 72 h, SRB; read-out: Supplementary table 1 / A4 IC50
Method: as §1

LOVO = assay: cells; parameters: Sulforhodamine B growth/viability assay on tumour cell line panel (Oncolead), six dilutions, compound replenished daily; details: Homo sapiens, LoVo; 72 h, SRB; read-out: Supplementary table 1 / A4 IC50
Method: as §1

MCF-7 = assay: cells; parameters: Sulforhodamine B growth/viability assay on tumour cell line panel (Oncolead), six dilutions, compound replenished daily; details: Homo sapiens, MCF7; 72 h, SRB; read-out: Supplementary table 1 / A4 IC50
Method: as §1

MDAMB231 = assay: cells; parameters: Sulforhodamine B growth/viability assay on tumour cell line panel (Oncolead), six dilutions, compound replenished daily; details: Homo sapiens, MDA-MB-231; 72 h, SRB; read-out: Supplementary table 1 / A4 IC50
Method: as §1

MDAMB436 = assay: cells; parameters: Sulforhodamine B growth/viability assay on tumour cell line panel (Oncolead), six dilutions, compound replenished daily; details: Homo sapiens, MDA-MB-436; 72 h, SRB; read-out: Supplementary table 1 / A4 IC50
Method: as §1

MDAMB468 = assay: cells; parameters: Sulforhodamine B growth/viability assay on tumour cell line panel (Oncolead), six dilutions, compound replenished daily; details: Homo sapiens, MDA-MB-468; 72 h, SRB; read-out: Supplementary table 1 / A4 IC50
Method: as §1

OVCAR3 = assay: cells; parameters: Sulforhodamine B growth/viability assay on tumour cell line panel (Oncolead), six dilutions, compound replenished daily; details: Homo sapiens, OVCAR-3; 72 h, SRB; read-out: Supplementary table 1 / A4 IC50
Method: as §1

OVCAR4 = assay: cells; parameters: Sulforhodamine B growth/viability assay on tumour cell line panel (Oncolead), six dilutions, compound replenished daily; details: Homo sapiens, OVCAR-4; 72 h, SRB; read-out: Supplementary table 1 / A4 IC50
Method: as §1

SKBR3 = assay: cells; parameters: Sulforhodamine B growth/viability assay on tumour cell line panel (Oncolead), six dilutions, compound replenished daily; details: Homo sapiens, SK-BR-3; 72 h, SRB; read-out: Supplementary table 1 / A4 IC50
Method: as §1

SKOV-3 = assay: cells; parameters: Sulforhodamine B growth/viability assay on tumour cell line panel (Oncolead), six dilutions, compound replenished daily; details: Homo sapiens, SK-OV-3; 72 h, SRB; read-out: Supplementary table 1 / A4 IC50
Method: as §1

SW620 = assay: cells; parameters: Sulforhodamine B growth/viability assay on tumour cell line panel (Oncolead), six dilutions, compound replenished daily; details: Homo sapiens, SW-620; 72 h, SRB; read-out: Supplementary table 1 / A4 IC50
Method: as §1

UO31 = assay: cells; parameters: Sulforhodamine B growth/viability assay on tumour cell line panel (Oncolead), six dilutions, compound replenished daily; details: Homo sapiens, UO-31; 72 h, SRB; read-out: Supplementary table 1 / A4 IC50
Method: as §1

T1 sequence (P98170 whole entry): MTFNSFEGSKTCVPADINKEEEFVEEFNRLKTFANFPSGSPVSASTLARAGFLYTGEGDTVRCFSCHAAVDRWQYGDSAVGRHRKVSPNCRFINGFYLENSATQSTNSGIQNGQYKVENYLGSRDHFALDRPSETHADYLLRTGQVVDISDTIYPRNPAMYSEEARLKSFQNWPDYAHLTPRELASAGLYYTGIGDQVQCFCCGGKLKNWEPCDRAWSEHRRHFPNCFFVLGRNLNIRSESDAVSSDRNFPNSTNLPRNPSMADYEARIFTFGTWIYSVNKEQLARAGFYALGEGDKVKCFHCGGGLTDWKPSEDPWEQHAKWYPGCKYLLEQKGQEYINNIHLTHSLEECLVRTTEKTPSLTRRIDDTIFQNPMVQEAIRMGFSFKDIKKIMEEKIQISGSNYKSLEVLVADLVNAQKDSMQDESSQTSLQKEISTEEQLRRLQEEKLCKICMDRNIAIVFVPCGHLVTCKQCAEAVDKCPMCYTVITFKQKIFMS

COC(=O)c1[nH]c2ccc(Cl)cc2c1NC(=O)CN1CCN(Cc2ccccc2)CC1 [A4, methyl 5-chloro-3-[[2-[4-(phenylmethyl)piperazin-1-yl]acetyl]amino]-1H-indole-2-carboxylat]
Kd (XIAP): 0.348 ± 0.228 µM | IC50 (786-0): 6.3 µM | IC50 (ACHN): 5.99 µM | IC50 (COLO205): 7.38 µM | IC50 (COLO678): 14.4 µM | IC50 (Caco-2): 8.14 µM | IC50 (Caki1): 8.14 µM | IC50 (DLD1): 8.24 µM | IC50 (HCT116): 11.2 µM | IC50 (HCT15): 5.03 µM | IC50 (HEK293): 2.8 µM | IC50 (HS578T): 9.56 µM | IC50 (HT-29): 1.84 µM | IC50 (IGROV-1): 8.08 µM | IC50 (LOVO): 5.96 µM | IC50 (MCF-7): 4.61 µM | IC50 (MDAMB231): 10.1 µM | IC50 (MDAMB436): 7.16 µM | IC50 (MDAMB468): 6.22 µM | IC50 (OVCAR3): 8.4 µM | IC50 (OVCAR4): 9.99 µM | IC50 (SKBR3): 7.98 µM | IC50 (SKOV-3): 13.6 µM | IC50 (SW620): 10.4 µM | IC50 (UO31): 6.48 µM
